# Data reported in ChEMBL document CHEMBL1201861, “Genomics of Drug Sensitity in Cancer screening data, Wellcome Trust Sanger Institute”.
# Key:
# Assay in all cases: cells
# NCI-H23 = type: functional, cell-based, Homo sapiens; settings: Homo sapiens, NCI-H23;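 also: cell viability assay measuring growth inhibition of NCI-H23 cells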
# Description: SANGER: Inhibition of human NCI-H23 cell growth in a cell viability assay.
# ALL-PO = type: functional, cell-based, Homo sapiens; settings: Homo sapiens, ALL-PO;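 also: growth inhibition of ALL-PO cells, read out by a cell viability assay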
# Description: SANGER: Inhibition of human ALL-PO cell growth in a cell viability assay.
# SCH = type: functional, cell-based, Homo sapiens; settings: Homo sapiens, SCH;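 also: growth inhibition of human SCH cells, read out in a cell viability assay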
# Description: SANGER: Inhibition of human SCH cell growth in a cell viability assay.
# KS-1 = type: functional, cell-based; settings: Homo sapiens;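 also: growth inhibition of KS-1 cells, read out with a cell viability assay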
# Description: SANGER: Inhibition of human KS-1 cell growth in a cell viability assay.
# SK-UT-1 = type: functional, cell-based, Homo sapiens; settings: Homo sapiens, SK-UT-1;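 also: growth inhibition of SK-UT-1 cells, measured by a cell viability assay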
# Description: SANGER: Inhibition of human SK-UT-1 cell growth in a cell viability assay.
# C8166 = type: functional, cell-based, Homo sapiens; settings: Homo sapiens, C8166;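 also: growth inhibition of human C8166 cells measured by a cell viability assay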
# Description: SANGER: Inhibition of human C8166 cell growth in a cell viability assay.
# NCI-H1581 = type: functional, cell-based, Homo sapiens; settings: Homo sapiens, NCI-H1581;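 also: cell growth inhibition read out by a viability assay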
# Description: SANGER: Inhibition of human NCI-H1581 cell growth in a cell viability assay.
# OVCAR-4 = type: functional, cell-based, Homo sapiens; settings: Homo sapiens, OVCAR-4;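 also: growth inhibition of human OVCAR-4 cells, measured with a cell viability assay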
# Description: SANGER: Inhibition of human OVCAR-4 cell growth in a cell viability assay.
# LXF-289 cell line = type: functional, cell-based; settings: Homo sapiens
# Description: SANGER: Inhibition of human LXF-289 cell growth in a cell viability assay.
# Lu-65 = type: functional, cell-based, Homo sapiens; settings: Homo sapiens, Lu-65;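 also: growth inhibition of Lu-65 cancer cells, read out by a cell viability assay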
# Description: SANGER: Inhibition of human LU-65 cell growth in a cell viability assay.
# HAL-01 = type: functional, cell-based, Homo sapiens; settings: Homo sapiens, HAL-01;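 also: growth inhibition of human HAL-01 cells, read out with a cell viability assay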
# Description: SANGER: Inhibition of human HAL-01 cell growth in a cell viability assay.
# HD-MY-Z = type: functional, cell-based, Homo sapiens; settings: Homo sapiens, HD-MY-Z;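 also: growth inhibition of HD-MY-Z cells, read out with a cell viability assay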
# Description: SANGER: Inhibition of human HD-MY-Z cell growth in a cell viability assay.
# RS4-11 = type: functional, cell-based, Homo sapiens; settings: Homo sapiens, RS4-11;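 also: growth inhibition of RS4-11 cells, read out by a cell viability assay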
# Description: SANGER: Inhibition of human RS4-11 cell growth in a cell viability assay.
# no-11 = type: functional, cell-based, Homo sapiens; settings: Homo sapiens;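 also: growth inhibition of human NO-11 cells, read out with a cell viability assay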
# Description: SANGER: Inhibition of human no-11 cell growth in a cell viability assay.
# MN-60 = type: functional, cell-based, Homo sapiens; settings: Homo sapiens, MN-60;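 also: growth inhibition of the MN-60 cell line, determined with a cell viability assay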
# Description: SANGER: Inhibition of human MN-60 cell growth in a cell viability assay.
# NCI-H1648 = type: functional, cell-based, Homo sapiens; settings: Homo sapiens, NCI-H1648;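 also: cell viability assay measuring inhibition of NCI-H1648 cell growth, from the Sanger screening data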
# Description: SANGER: Inhibition of human NCI-H1648 cell growth in a cell viability assay.
# KM-H2 = type: functional, cell-based, Homo sapiens; settings: Homo sapiens, KM-H2;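 also: growth inhibition of KM-H2 cells, read out by a cell viability assay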
# Description: SANGER: Inhibition of human KM-H2 cell growth in a cell viability assay.
# IST-SL1 = type: functional, cell-based, Homo sapiens; settings: Homo sapiens, IST-SL1;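 also: growth inhibition of human IST-SL1 cells, read out with a cell viability assay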
# Description: SANGER: Inhibition of human IST-SL1 cell growth in a cell viability assay.
# KALS-1 = type: functional, cell-based, Homo sapiens; settings: Homo sapiens, KALS-1; read-out: IC50;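 also: growth inhibition of KALS-1 cells, determined with a cell viability assay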
# Description: SANGER: Inhibition of human KALS-1 cell growth in a cell viability assay.
# TE-8 = type: functional, cell-based, Homo sapiens; settings: Homo sapiens, TE-8;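 also: growth inhibition of TE-8 cells, measured with a cell viability readout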
# Description: SANGER: Inhibition of human TE-8 cell growth in a cell viability assay.
# NB10 = type: functional, cell-based, Homo sapiens; settings: Homo sapiens, NB10;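 also: growth inhibition of NB10 cells, read out by a cell viability assay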
# Description: SANGER: Inhibition of human NB10 cell growth in a cell viability assay.
# MOLT-16 = type: functional, cell-based, Homo sapiens; settings: Homo sapiens, MOLT-16;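 also: growth inhibition of human MOLT-16 cells, read out with a cell viability assay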
# Description: SANGER: Inhibition of human MOLT-16 cell growth in a cell viability assay.
# LC-2-ad = type: functional, cell-based, Homo sapiens; settings: Homo sapiens, LC-2-ad;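 also: growth inhibition of human LC-2-ad cells, read out with a cell viability assay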
# Description: SANGER: Inhibition of human LC-2-ad cell growth in a cell viability assay.
# DB = type: functional, cell-based, Homo sapiens; settings: Homo sapiens, DB
# Description: SANGER: Inhibition of human DB cell growth in a cell viability assay.
# LNCaP-Clone-FGC = type: functional, cell-based, Homo sapiens; settings: Homo sapiens, LNCaP-Clone-FGC
# Description: SANGER: Inhibition of human LNCaP-Clone-FGC cell growth in a cell viability assay.
# GOTO = type: functional, cell-based, Homo sapiens; settings: Homo sapiens, GOTO;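 also: growth inhibition of GOTO cells, read out by a cell viability assay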
# Description: SANGER: Inhibition of human GOTO cell growth in a cell viability assay.
# GI-ME-N = type: functional, cell-based, Homo sapiens; settings: Homo sapiens, GI-ME-N;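 also: growth inhibition of human GI-ME-N cells, read out with a cell viability assay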
# Description: SANGER: Inhibition of human GI-ME-N cell growth in a cell viability assay.
# NCI-H1092 = type: functional, cell-based, Homo sapiens; settings: Homo sapiens, NCI-H1092;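 also: cell growth inhibition measured with a cell viability assay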
# Description: SANGER: Inhibition of human NCI-H1092 cell growth in a cell viability assay.
# NCI-H69 = type: functional, cell-based, Homo sapiens; settings: Homo sapiens, NCI-H69;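 also: growth inhibition of the cell line, read out with a cell viability assay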
# Description: SANGER: Inhibition of human NCI-H69 cell growth in a cell viability assay.
# EW-16 = type: functional, cell-based, Homo sapiens; settings: Homo sapiens, EW-16;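 also: growth inhibition of human EW-16 cells, read out as cell viability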
# Description: SANGER: Inhibition of human EW-16 cell growth in a cell viability assay.
# COLO-829 = type: functional, cell-based, Homo sapiens; settings: Homo sapiens, COLO-829
# Description: SANGER: Inhibition of human COLO-829 cell growth in a cell viability assay.
# SBC-1 = type: functional, cell-based, Homo sapiens; settings: Homo sapiens, SBC-1;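 also: cell viability assay measuring growth inhibition of the SBC-1 cell line, IC50 being the concentration that halves growth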
# Description: SANGER: Inhibition of human SBC-1 cell growth in a cell viability assay.
# GT3TKB = type: functional, cell-based, Homo sapiens; settings: Homo sapiens, GT3TKB;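 also: growth inhibition of the cell line, read out with a cell viability assay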
# Description: SANGER: Inhibition of human GT3TKB cell growth in a cell viability assay.
# NB5 = type: functional, cell-based, Homo sapiens; settings: Homo sapiens, NB5;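 also: growth inhibition of NB5 cells, read out as cell viability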
# Description: SANGER: Inhibition of human NB5 cell growth in a cell viability assay.
# RPMI-8226 = type: functional, cell-based, Homo sapiens; settings: Homo sapiens, RPMI-8226
# Description: SANGER: Inhibition of human RPMI-8226 cell growth in a cell viability assay.
# KURAMOCHI = type: functional, cell-based, Homo sapiens; settings: Homo sapiens, KURAMOCHI;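 also: growth inhibition of KURAMOCHI cells, read out with a cell viability assay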
# Description: SANGER: Inhibition of human KURAMOCHI cell growth in a cell viability assay.
# ATN-1 = type: functional, cell-based, Homo sapiens; settings: Homo sapiens, ATN-1;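 also: growth inhibition of human ATN-1 cells, read out with a cell viability assay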
# Description: SANGER: Inhibition of human ATN-1 cell growth in a cell viability assay.
# HEL = type: functional, cell-based, Homo sapiens; settings: Homo sapiens, HEL;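 also: growth inhibition of HEL cells, read out with a cell viability assay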
# Description: SANGER: Inhibition of human HEL cell growth in a cell viability assay.
# CTB-1 = type: functional, cell-based, Homo sapiens; settings: Homo sapiens, CTB-1
# Description: SANGER: Inhibition of human CTB-1 cell growth in a cell viability assay.
# NCI-H1838 = type: functional, cell-based, Homo sapiens; settings: Homo sapiens, NCI-H1838;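 also: growth inhibition of NCI-H1838 cells, determined with a cell viability readout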
# Description: SANGER: Inhibition of human NCI-H1838 cell growth in a cell viability assay.
# RCC10RGB = type: functional, cell-based, Homo sapiens; settings: Homo sapiens, RCC10RGB;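 also: growth inhibition of human RCC10RGB cells, read out by a cell viability assay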
# Description: SANGER: Inhibition of human RCC10RGB cell growth in a cell viability assay.
# ONS-76 = type: functional, cell-based, Homo sapiens; settings: Homo sapiens, ONS-76;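 also: growth inhibition of human ONS-76 cells, read out with a cell viability assay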
# Description: SANGER: Inhibition of human ONS-76 cell growth in a cell viability assay.
# NKM-1 = type: functional, cell-based, Homo sapiens; settings: Homo sapiens, NKM-1;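 also: growth inhibition of NKM-1 cells, read out with a cell viability assay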
# Description: SANGER: Inhibition of human NKM-1 cell growth in a cell viability assay.
# NMC-G1 = type: functional, cell-based, Homo sapiens; settings: Homo sapiens, NMC-G1;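 also: growth inhibition of the NMC-G1 cell line, measured with a cell viability read-out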
# Description: SANGER: Inhibition of human NMC-G1 cell growth in a cell viability assay.
# NCI-H1395 = type: functional, cell-based, Homo sapiens; settings: Homo sapiens, NCI-H1395;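 also: cell viability assay read-out quantifying reduced proliferation of human NCI-H1395 cells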
# Description: SANGER: Inhibition of human NCI-H1395 cell growth in a cell viability assay.
# COLO-800 = type: functional, cell-based, Homo sapiens; settings: Homo sapiens, COLO-800;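 also: growth inhibition of COLO-800 cells, read out with a cell viability assay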
# Description: SANGER: Inhibition of human COLO-800 cell growth in a cell viability assay.
# LAN-6 = type: functional, cell-based, Homo sapiens; settings: Homo sapiens, LAN-6;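 also: growth inhibition of LAN-6 cells, determined with a cell viability assay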
# Description: SANGER: Inhibition of human LAN-6 cell growth in a cell viability assay.
# SK-MEL-1 = type: functional, cell-based, Homo sapiens; settings: Homo sapiens, SK-MEL-1;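 also: growth inhibition of human SK-MEL-1 cells, read out by a cell viability assay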
# Description: SANGER: Inhibition of human SK-MEL-1 cell growth in a cell viability assay.
# TGW = type: functional, cell-based, Homo sapiens; settings: Homo sapiens, TGW;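 also: growth inhibition of human TGW cells, read out with a cell viability assay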
# Description: SANGER: Inhibition of human TGW cell growth in a cell viability assay.
compound,measurement,setting,value
CC(C)C[C@H](NC(=O)[C@H](Cc1ccccc1)NC(=O)c1cnccn1)B(O)O [BORTEZOMIB],IC50,NCI-H23,12.1 nM
same,IC50,ALL-PO,> 20 nM
same,IC50,SCH,> 20 nM
same,IC50,KS-1,0.34 nM
same,IC50,SK-UT-1,0.163 nM
same,IC50,C8166,> 20 nM
same,IC50,NCI-H1581,12.3 nM
same,IC50,OVCAR-4,0.289 nM
same,IC50,LXF-289 cell line,0.269 nM
same,IC50,Lu-65,5.84 nM
same,IC50,HAL-01,1.18 nM
same,IC50,HD-MY-Z,3.93 nM
same,IC50,RS4-11,> 20 nM
same,IC50,no-11,3.55 nM
same,IC50,MN-60,8.14 nM
same,IC50,NCI-H1648,4.13 nM
same,IC50,KM-H2,> 20 nM
same,IC50,IST-SL1,4.68 nM
same,IC50,KALS-1,0.925 nM
same,IC50,TE-8,1.19 nM
same,IC50,NB10,2.32 nM
same,IC50,MOLT-16,2.89 nM
same,IC50,LC-2-ad,1.08 nM
same,IC50,DB,3.41 nM
same,IC50,LNCaP-Clone-FGC,> 20 nM
same,IC50,GOTO,17.1 nM
same,IC50,GI-ME-N,0.634 nM
same,IC50,NCI-H1092,1.8 nM
same,IC50,NCI-H69,1.54 nM
same,IC50,EW-16,2.75 nM
same,IC50,COLO-829,0.614 nM
same,IC50,SBC-1,5.01 nM
same,IC50,GT3TKB,2.12 nM
same,IC50,NB5,2.27 nM
same,IC50,RPMI-8226,2.35 nM
same,IC50,KURAMOCHI,1.72 nM
same,IC50,ATN-1,8.89 nM
same,IC50,HEL,1.61 nM
same,IC50,CTB-1,9.67 nM
same,IC50,NCI-H1838,> 20 nM
same,IC50,RCC10RGB,3.93 nM
same,IC50,ONS-76,0.33 nM
same,IC50,NKM-1,2 nM
same,IC50,NMC-G1,3.68 nM
same,IC50,NCI-H1395,> 20 nM
same,IC50,COLO-800,17.6 nM
same,IC50,LAN-6,2.05 nM
same,IC50,SK-MEL-1,> 20 nM
same,IC50,TGW,16.5 nM
COc1ccc(-c2cc3nccn3c(Nc3ncccc3C(N)=O)n2)cc1OC,IC50,NCI-H23,> 8000 nM
same,IC50,ALL-PO,557 nM
same,IC50,SCH,> 8000 nM
same,IC50,KS-1,2780 nM
same,IC50,SK-UT-1,6240 nM
same,IC50,C8166,2200 nM
same,IC50,NCI-H1581,> 8000 nM
same,IC50,OVCAR-4,> 8000 nM
same,IC50,LXF-289 cell line,> 8000 nM
same,IC50,Lu-65,2220 nM
same,IC50,HAL-01,> 8000 nM
same,IC50,HD-MY-Z,> 8000 nM
same,IC50,RS4-11,1230 nM
same,IC50,no-11,> 8000 nM
same,IC50,MN-60,> 8000 nM
same,IC50,NCI-H1648,> 8000 nM
same,IC50,KM-H2,> 8000 nM
same,IC50,IST-SL1,7980 nM
same,IC50,KALS-1,> 8000 nM
same,IC50,TE-8,2430 nM
same,IC50,NB10,5300 nM
same,IC50,MOLT-16,571 nM
same,IC50,LC-2-ad,1820 nM
same,IC50,DB,6640 nM
same,IC50,LNCaP-Clone-FGC,2180 nM
same,IC50,GOTO,3420 nM
same,IC50,GI-ME-N,> 8000 nM
same,IC50,NCI-H1092,> 8000 nM
same,IC50,NCI-H69,> 8000 nM
same,IC50,EW-16,1680 nM
same,IC50,COLO-829,> 8000 nM
same,IC50,SBC-1,> 8000 nM
same,IC50,GT3TKB,> 8000 nM
same,IC50,NB5,> 8000 nM
same,IC50,RPMI-8226,> 8000 nM
same,IC50,KURAMOCHI,7410 nM
same,IC50,ATN-1,> 8000 nM
same,IC50,HEL,1350 nM
same,IC50,CTB-1,> 8000 nM
same,IC50,NCI-H1838,> 8000 nM
same,IC50,RCC10RGB,> 8000 nM
same,IC50,ONS-76,> 8000 nM
same,IC50,NKM-1,1060 nM
same,IC50,NMC-G1,7550 nM
same,IC50,NCI-H1395,> 8000 nM
same,IC50,COLO-800,> 8000 nM
same,IC50,LAN-6,> 8000 nM
same,IC50,SK-MEL-1,> 8000 nM
same,IC50,TGW,> 8000 nM
